In patent US20100184134A1, “DUAL CHARGING SYSTEM FOR SELECTIVELY INTRODUCING NON-NATIVE AMINO ACIDS INTO PROTEINS USING AN IN VITRO SYNTHESIS METHOD” (priority 2009, published 2010):

Columns and labels:
PheRS = target: T1, PheRS (Escherichia coli, UniProt P08312); test: Inhibition of the rate of cell-free synthesis of turboGFP by Phe-SA; type: biochemical, E. coli
T1 construct: endogenous in cells; host or cells: cell-free extract (lysate) of E. coli strain KGK10
Text: (§1) Cell-free extracts or lysates were generated to maximize ribosome yield using rapid growth of high cell density fermentations of E. coli strain KGK10 (Knapp, Goerke et al. (2007) Biotechnol Bioeng, 97, 901-8), essentially as described by Liu et al.(Liu, Zawada et al. (2005) Biotechnol Prog, 21, 460-5) DL-dithiothreitol was not added to the cell lysate following homogenization. A modified “run-off procedure” was used to prepare the cell-free extract. Fermentation volume to generate sufficient cell-free extract was typically 2.5× the desired cell-free reaction volume. To inactivate the reducing activity of the cell extract, iodoacetamide (IAM) at various concentrations was added as previously described (Yang, Kanter et al. (2004) Biotechnol Prog, 20, 1689-96). Gene expression was under the control of the T7 promoter. In order to facilitate translation initiation, genes were synthesized (DNA 2.0, Menlo Park, Calif.) with synonymous codons at the 5′ end of the gene with ATG start codon (N-terminal methionine residue) optimized for mRNA instability as measured by mRNA ΔGfold in the −6 to +37 positions (Kudla, Murray et al. (2009) Science, 324, 255-258) and rare codons were replaced. […]

[1] = target: T2, endogenous activity of PheRS (Escherichia coli, UniProt P08312); test: Cell-free synthesis of turboGFP Y50TAG with added uncharged tRNAs in the presence of Phe-SA; type: biochemical, E. coli; conditions: 12 nM Phe-SA; uncharged tRNACUA^Phe and tRNAGAA^Phe added
T2 construct: endogenous in cells; host or cells: cell-free extract (lysate) of E. coli strain KGK10
Protocol: A control reaction containing turboGFP Y50TAG plasmid only yields no fluorescence, consistent with the ca. 6 kD truncated product (cf FIG. 22). The incorporation of para-acetyl phenylalanine at position 50 using the UAG-specific E. coli phenylalanine tRNACUA^Phe and tRNAGAA^Phe was measured in the presence 12 nM Phe-SA inhibitor, to inhibit the endogenous activity of PheRS (cf. FIG. 19c). […] In contrast, addition of various concentrations of both charged pAF-tRNACUA^Phe and Phe-tRNAGAA^Phe results in 13-20% of the wild-type fluorescence after 5 h, consistent with significant protein synthesis with incorporation of pAF at position 50.

GluRS = GluRS (Escherichia coli, UniProt P04805); conditions: read-out: IC50 for inhibition of the rate of cell-free synthesis of turboGFP; cell-free reaction at 30° C., fluorescence monitored for 5 h, maximal rate of fluorescence change
Text: as §1

T1 sequence (P07395 whole entry): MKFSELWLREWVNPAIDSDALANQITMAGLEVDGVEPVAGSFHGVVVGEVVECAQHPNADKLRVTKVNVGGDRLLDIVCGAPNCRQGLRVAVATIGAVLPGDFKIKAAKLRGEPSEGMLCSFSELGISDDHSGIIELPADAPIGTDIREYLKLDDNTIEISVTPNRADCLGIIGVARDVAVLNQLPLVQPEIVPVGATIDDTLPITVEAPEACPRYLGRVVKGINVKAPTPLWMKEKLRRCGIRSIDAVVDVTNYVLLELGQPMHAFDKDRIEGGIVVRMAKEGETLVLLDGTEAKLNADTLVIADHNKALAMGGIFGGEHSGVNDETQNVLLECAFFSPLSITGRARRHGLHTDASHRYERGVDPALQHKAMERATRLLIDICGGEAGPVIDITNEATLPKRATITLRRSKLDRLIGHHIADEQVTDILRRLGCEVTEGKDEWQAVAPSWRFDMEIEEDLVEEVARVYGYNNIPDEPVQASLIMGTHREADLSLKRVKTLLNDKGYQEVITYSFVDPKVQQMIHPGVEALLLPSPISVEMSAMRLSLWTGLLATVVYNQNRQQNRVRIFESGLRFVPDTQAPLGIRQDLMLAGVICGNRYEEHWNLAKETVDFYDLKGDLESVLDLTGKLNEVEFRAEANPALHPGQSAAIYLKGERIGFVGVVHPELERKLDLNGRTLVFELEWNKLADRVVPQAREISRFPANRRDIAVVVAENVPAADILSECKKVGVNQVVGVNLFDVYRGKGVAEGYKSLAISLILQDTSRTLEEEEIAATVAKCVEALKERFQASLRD
T1 sequence (P08312 whole entry): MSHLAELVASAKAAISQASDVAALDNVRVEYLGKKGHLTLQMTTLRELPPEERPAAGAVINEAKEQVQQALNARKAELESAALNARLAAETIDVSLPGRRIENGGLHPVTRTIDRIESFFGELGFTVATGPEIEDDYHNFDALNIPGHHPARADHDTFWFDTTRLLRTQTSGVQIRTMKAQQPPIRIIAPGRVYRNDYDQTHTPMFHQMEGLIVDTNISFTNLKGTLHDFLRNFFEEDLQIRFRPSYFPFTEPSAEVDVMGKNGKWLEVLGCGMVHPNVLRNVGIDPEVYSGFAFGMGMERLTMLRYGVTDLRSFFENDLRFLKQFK
T2 sequence (P08312 whole entry): as above
T2 sequence (P07395 whole entry, further chain): as the sequence (P07395 whole entry) above
GluRS, sequence (P04805 whole entry): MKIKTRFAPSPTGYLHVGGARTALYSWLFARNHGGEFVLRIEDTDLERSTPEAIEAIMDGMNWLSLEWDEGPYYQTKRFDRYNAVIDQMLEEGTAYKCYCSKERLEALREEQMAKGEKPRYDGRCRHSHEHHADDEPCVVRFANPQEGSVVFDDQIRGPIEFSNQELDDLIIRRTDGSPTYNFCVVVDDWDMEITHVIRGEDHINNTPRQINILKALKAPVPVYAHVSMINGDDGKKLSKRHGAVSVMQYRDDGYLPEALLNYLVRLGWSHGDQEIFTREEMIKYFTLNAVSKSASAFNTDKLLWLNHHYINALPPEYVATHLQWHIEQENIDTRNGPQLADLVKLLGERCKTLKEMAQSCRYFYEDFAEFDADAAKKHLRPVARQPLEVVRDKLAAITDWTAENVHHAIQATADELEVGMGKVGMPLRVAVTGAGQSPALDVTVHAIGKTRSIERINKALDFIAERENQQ

Structure (SMILES)	IC50 (PheRS) [nM]	turboGFP fluorescence activity (percent relative activity) (PheRS; 1 nM Phe-SA inhibitor) [%]	inhibition of PheRS (no protein synthesized with uncharged tRNAs) [1]	IC50 (GluRS) [nM]
Nc1ncnc2c1ncn2[C@@H]1O[C@H](COS(=O)(=O)NC(=O)[C@@H](N)Cc2ccccc2)[C@@H](O)[C@H]1O [Phe-SA, 5′-O-[N-(Phenylalanyl)sulfamoyl] adenosine]	0.8	~50	completely inhibited	–
Nc1ncnc2c1ncn2[C@@H]1O[C@H](COS(=O)(=O)NC(=O)[C@@H](N)CCC(=O)O)[C@@H](O)[C@H]1O [Glu-SA]	–	–	–	54
